Data on 23 compounds can be found in ChEMBL document CHEMBL1129819, “Polysubstituted 2H-pyran-2-ones: A new class of hepatoprotective agents” (1997).

Each structure is given as a SMILES string.

Type in all cases: functional
The subject of assay [1] is Rattus norvegicus. Briefly: Percent protection against thioacetamide-induced toxicity in rats using glutamate dehydrogenase (GIDH) when peroral administration of compound 6 mg/kg for 7 days. As to conditions: route oral.
Assay [2] deals with Rattus norvegicus. The assay is described as follows: Percent protection against thioacetamide-induced toxicity in rats using alkaline phosphatase (ALP) when peroral administration of compound 6 mg/kg for 7 days. As to conditions: route oral.
In assay [3] the test system is Rattus norvegicus. Briefly: Percent protection against thioacetamide-induced toxicity in rats using glutamate oxaloacetate transaminase (GOT) when peroral administration of compound 6 mg/kg for 7 days. As to conditions: route oral.
For assay [4], the species on record is Rattus norvegicus. The assay is described as follows: Percent protection against thioacetamide-induced toxicity in rats using acid phosphatase(ACP). Also noted: concentration or dose not given beside the values.
The test system of assay [5] is Rattus norvegicus. The assay is described as follows: Percent protection against thioacetamide-induced toxicity in rats using glutamate pyruvate transaminase (GPT) when peroral administration of compound 6 mg/kg for 7 days. As to conditions: route oral.
The subject of assay [6] is Rattus norvegicus. The assay is described as follows: Percent protection against thioacetamide-induced toxicity in rats using acid phosphatase(ACP) at peroral dose of 6 mg/kg for 7 days of compound. As to conditions: route oral.
Assay [7] deals with Rattus norvegicus. Briefly: Percent protection in alcohol-induced model using alkaline phosphatase(ALP) when peroral administration of compound 12 mg/kg for 7 days. As to conditions: route oral.
Assay [8] deals with Rattus norvegicus. The assay is described as follows: Percent protection in galactosamine-induced model using glutamate oxaloacetate transaminase(GOT) when peroral administration of compound 6 mg/kg for 7 days. As to conditions: route oral.
Assay [9] concerns Rattus norvegicus. The assay is described as follows: Percent protection in paracetamol-induced model using glutamate oxaloacetate transaminase(GOT) when peroral administration of compound 6 mg/kg for 7 days. As to conditions: route oral.
Assay [10] deals with Rattus norvegicus. The assay is described as follows: Percent protection in alcohol-induced model using alkaline phosphatase(ALP) when peroral administration of compound 6 mg/kg for 7 days. As to conditions: route oral.
The test system of assay [11] is Rattus norvegicus. Briefly: Percent protection in alcohol-induced model using glutamate dehydrogenase(GIDH) when peroral administration of compound 12 mg/kg for 7 days. As to conditions: route oral.
Assay [12] relates to Rattus norvegicus. The assay is described as follows: Percent protection in galactosamine-induced model using alkaline phosphatase(ALP) when peroral administration of compound 6 mg/kg for 7 days. As to conditions: route oral.
In assay [13] the test system is Rattus norvegicus. Briefly: Percent protection in carbon tetrachloride-induced model using alkaline phosphatase(ALP) when peroral administration of compound 6 mg/kg for 7 days. As to conditions: route oral.
Assay [14] concerns Rattus norvegicus. Briefly: Percent protection in alcohol-induced model using glutamate dehydrogenase(GIDH) when peroral administration of compound 6 mg/kg for 7 days. As to conditions: route oral.
Assay [15] relates to Rattus norvegicus. The assay is described as follows: Percent protection in alcohol-induced model using acid phosphatase(ACP) at peroral dose of 6 mg/kg for 7 days. As to conditions: route oral.
The test system of assay [16] is Rattus norvegicus. The assay is described as follows: Percent protection in galactosamine-induced model using glutamate dehydrogenase(GIDH) when peroral administration of compound 6 mg/kg for 7 days. As to conditions: route oral.
Assay [17] has as its system Rattus norvegicus. The assay is described as follows: Percent protection in paracetamol-induced model using glutamate pyruvate transaminase(GPT) when peroral administration of compound 6 mg/kg for 7 days. As to conditions: route oral.
Assay [18] has as its system Rattus norvegicus. The assay is described as follows: Percent protection in paracetamol-induced model using glutamate dehydrogenase(GIDH) when peroral administration of compound 6 mg/kg for 7 days. As to conditions: route oral.
Assay [19] relates to Rattus norvegicus. The assay is described as follows: Percent protection in carbon tetrachloride-induced model using glutamate dehydrogenase(GIDH) when peroral administration of compound 6 mg/kg for 7 days. As to conditions: route oral.
Assay [20] has as its system Rattus norvegicus. The assay is described as follows: Percent protection in paracetamol-induced model using alkaline phosphatase(ALP) at peroral dose of 6 mg/kg for 7 days. As to conditions: route oral.
Assay [21] has as its system Rattus norvegicus. Briefly: Percent protection in alcohol-induced model using acid phosphatase(ACP) when peroral administration of compound 12 mg/kg for 7 days. As to conditions: route oral.
In assay [22] the test system is Rattus norvegicus. Briefly: Percent protection in alcohol-induced model using glutamate oxaloacetate transaminase(GOT) when peroral administration of compound 12 mg/kg for 7 days. As to conditions: route oral.
The subject of assay [23] is Rattus norvegicus. The assay is described as follows: Percent protection in alcohol-induced model using glutamate oxaloacetate transaminase(GOT) when peroral administration of compound 6 mg/kg for 7 days. As to conditions: route oral.
The subject of assay [24] is Rattus norvegicus. The assay is described as follows: Percent protection in alcohol-induced model using glutamate pyruvate transaminase(GPT) when peroral administration of compound 6 mg/kg for 7 days. As to conditions: route oral.
For assay [25], the system named is Rattus norvegicus. The assay is described as follows: Percent protection in carbon tetrachloride-induced model using acid phosphatase(ACP) when peroral administration of compound 6 mg/kg for 7 days. As to conditions: route oral.
The subject of assay [26] is Rattus norvegicus. The assay is described as follows: Percent protection in paracetamol-induced model using acid phosphatase(ACP) when peroral administration of compound 6 mg/kg for 7 days. As to conditions: route oral.
For assay [27], the system named is Rattus norvegicus. Briefly: Percent protection in carbon tetrachloride-induced model using glutamate pyruvate transaminase(GPT) when peroral administration of compound 6 mg/kg for 7 days. As to conditions: route oral.
Assay [28] concerns Rattus norvegicus. Briefly: Percent protection in carbon tetrachloride-induced model using glutamate oxaloacetate transaminase(GOT) when peroral administration of compound 6 mg/kg for 7 days. As to conditions: route oral.
The test system of assay [29] is Rattus norvegicus. The assay is described as follows: Percent protection in alcohol-induced model using glutamate pyruvate transaminase(GPT) at peroral dose of 12 mg/kg for 7 days. As to conditions: route oral.
Assay [30] relates to Rattus norvegicus. Briefly: Percent protection in galactosamine-induced model using glutamate pyruvate transaminase(GPT) when peroral administration of compound 6 mg/kg for 7 days. As to conditions: route oral.

As for `CSc1cc(-c2ccc(Br)cc2)oc(=O)c1Br`, the Protection in assay [1] amounted to 28%; in assay [2] it was 15%; in assay [3], 47%; in assay [4], 72%; in [5] it was 18%.
As for `CSc1cc(-c2ccc(Br)cc2)oc(=O)c1Cl`, the Protection is reported as 26% in [1]; 30% in assay [6]; 19% in assay [2]; 30% in [3]; 40% in assay [5].
`CSc1cc(-c2cccnc2)oc(=O)c1C#N`: the Protection is 51% in assay [1]; 0% in [2]; 12% in assay [3]; 38% in assay [4]; 12% in [5].
Consider `CSc1cc(-c2ccc(Cl)cc2)oc(=O)c1C(N)=O`, for which the Protection in assay [1] turned out to be 0%; in assay [2] it was 17%; in [3], 16%; in assay [4], 10%; in [5], 15%.
Take `CSc1cc(-c2ccc(Cl)cc2)oc(=S)c1Br`: the Protection in assay [1] amounted to 20%; in assay [2] it was 36%; in [3] it was 25%; in [4], 0%; in assay [5] it was 0%.
On to `CSc1cc(-c2ccncc2)oc(=O)c1Br`, for which the Protection turned out to be 16% in assay [1]; 12% in [2]; 48% in assay [3]; 53% in [4]; 0% in assay [5].
`CSc1cc(-c2ccc(F)cc2)oc(=O)c1`: the Protection in [1] came to 15%; in assay [2], 30%; in [3], 59%; in assay [4] it was 46%; in [5], 57%.
Consider `CSc1cc(-c2ccc(Cl)cc2)oc(=O)c1Br`, for which the Protection was 51% in assay [1]; 100% in [2]; 70% in assay [3]; 48% in assay [4]; 80% in [5].
In the case of `CSc1cc(-c2ccc(Cl)cc2)oc(=O)c1`, the Protection in assay [1] is given as 43%; in [6], 24%; in [2] it was 42%; in assay [3] it was 46%; in assay [5], 51%.
For `CCOC(=O)c1c(SC)c(C#N)c(-c2ccc(Br)cc2)oc1=O`, the Protection worked out at 2% in [1]; 0% in assay [2]; 0% in [3]; 2% in assay [4]; 0% in assay [5].
For the compound `CSc1cc(-c2ccc(Br)cc2)oc(=O)c1C#N`, the Protection in assay [1] worked out at 40%; in assay [2], 56%; in [3] it was 20%; in assay [4] it was 38%; in assay [5], 10%.
Take `CCOC(=O)c1c(SC)cc(-c2ccc(Cl)cc2)oc1=O`: the Protection in assay [1] is given as 17%; in assay [6] it was 0%; in [2], 11%; in [3], 23%; in assay [5] it was 31%.
`CSc1cc(-c2ccncc2)oc(=O)c1C#N`: the Protection was found to be 0% in assay [1]; 0% in [6]; 12% in assay [2]; 0% in [3]; 0% in [5].
With `CSc1cc(-c2ccco2)oc(=O)c1C#N`, the Protection is reported as 15% in assay [1]; 19% in [2]; 71% in [3]; 0% in [4]; 72% in assay [5].
Take `CSc1cc(-c2cccs2)oc(=O)c1C#N`: the Protection in assay [1] was determined as 100%; in [2], 33%; in assay [3], 37%; in assay [4], 10%; in assay [5], 74%.
Regarding `CSc1cc(-c2ccc(Cl)cc2)oc(=O)c1Cl`, the Protection is listed as 27% in assay [1]; 38% in assay [6]; 40% in assay [2]; 36% in assay [3]; 51% in [5].
As to `CSc1cc(-c2ccc(F)cc2)oc(=O)c1C#N`, the Protection in assay [1] is 0%; in [2] it was 15%; in [3], 20%; in [4], 46%; in assay [5], 31%.
Taken in the same sequence, the figures for `CSc1cc(-c2ccc(Cl)cc2Cl)oc(=O)c1C#N` were 65%, 33%, 37%, 61% and 45%.
Turning to `CSc1cc(-c2ccc(F)cc2)oc(=O)c1Br`, the Protection in assay [1] stood at 0%; in [6] it was 49%; in assay [2], 43%; in assay [3], 0%; in [5] it was 0%.
As for `CSc1cc(-c2cccs2)oc(=O)c1Br`, the Protection in assay [1] is reported as 4%; in [2] it was 37%; in [3], 50%; in assay [4], 25%; in assay [5], 55%.
As to `CCOC(=O)c1c(SC)c(C#N)c(-c2ccc(Cl)cc2)oc1=O`, the Protection was found to be 16% in [1]; 0% in assay [2]; 14% in assay [3]; 30% in [4]; 19% in assay [5].
On to `CSc1cc(-c2ccc(Cl)cc2)oc(=S)c1Cl`, for which the Protection in [1] amounted to 12%; in assay [2], 10%; in assay [3] it was 29%; in [4] it was 25%; in assay [5], 26%.
Turning to `COc1cc([C@H]2Oc3cc([C@H]4Oc5cc(O)cc(O)c5C(=O)[C@@H]4O)ccc3O[C@@H]2CO)ccc1O` [SILYBIN A], the Protection in assay [7] worked out at 77%; in [1], 38.81%; in [8] it was 47%; in [6], 43.25%; in assay [9] it was 46%; in [10], 62%. Further, the Protection was 59% in assay [11]; 33% in assay [12]; 51% in [13]; 49% in [14]; 49% in assay [15]; 65% in assay [16]. The Protection was 49% in assay [17]; 60% in [18]; 47% in assay [2]; 51% in assay [19]; 50% in assay [20]; 64% in [21]. Besides, the Protection in assay [3] is recorded as 50.14%; in assay [22], 62%; in assay [23], 43%; in [24] it was 59%; in [25], 57%; in assay [4], 61%. Moreover, the Protection is recorded as 67% in assay [26]; 64% in assay [27]; 48% in assay [28]; 78% in [29]; 45% in assay [30]; 47.25% in assay [5].
